This is an account of results in BindingDB's records for patent US10106535 (Chdi Foundation, 2018).

In this assay the target is Histone deacetylase 4 (Homo sapiens, UniProt P56524). Kind of assay: Biochemical HDAC-4 Assay. As for the experimental part:
5 μl of each solution of 1:20 diluted compound from above is transferred to a clear bottomed, black, 384-well assay plate using the Bravo or the Janus (384-well MDT head from Perkin Elmer). Using a 16-channel Matrix multi-channel pipette, 35 μl of the working solution of HDAC4 catalytic domain enzyme (0.2 μg/ml in assay buffer) is transferred to the assay plate. The assay is then started by adding 10 μl of 5× (50 μM) substrate to the assay plates using either the Bravo, Janus or 16-channel Matrix multi-channel pipette. The assay plate is then shaken for two minutes on an orbital shaker at 900 rpm (rotations per minute). Next the plate is incubated for 15 minutes at 37° C. The reaction is stopped by adding 25 μl of 3× (30 μM) developer/stop solution to the assay plates using either the Bravo, Janus or a 16-channel Matrix multi-channel pipette. Assay plates are then shaken for 5 minutes on an orbital shaker at 1200 rpm. Next, the assay plates are incubated at 37° C. for 1 hour in a tissue culture incubator. Finally, the fluorescence is measured (Excitation: 355 nm, Emission: 460 nm) using PerkinElmer EnVision in top read mode.

pIC50: −log10 of the molar value.

In general, pIC50 refers to the negative decadic logarithm of the IC50, by convention in mol/L. Higher therefore signals a small IC50.

Histone deacetylase 4, sequence (P56524 whole entry, the tested form may be a part): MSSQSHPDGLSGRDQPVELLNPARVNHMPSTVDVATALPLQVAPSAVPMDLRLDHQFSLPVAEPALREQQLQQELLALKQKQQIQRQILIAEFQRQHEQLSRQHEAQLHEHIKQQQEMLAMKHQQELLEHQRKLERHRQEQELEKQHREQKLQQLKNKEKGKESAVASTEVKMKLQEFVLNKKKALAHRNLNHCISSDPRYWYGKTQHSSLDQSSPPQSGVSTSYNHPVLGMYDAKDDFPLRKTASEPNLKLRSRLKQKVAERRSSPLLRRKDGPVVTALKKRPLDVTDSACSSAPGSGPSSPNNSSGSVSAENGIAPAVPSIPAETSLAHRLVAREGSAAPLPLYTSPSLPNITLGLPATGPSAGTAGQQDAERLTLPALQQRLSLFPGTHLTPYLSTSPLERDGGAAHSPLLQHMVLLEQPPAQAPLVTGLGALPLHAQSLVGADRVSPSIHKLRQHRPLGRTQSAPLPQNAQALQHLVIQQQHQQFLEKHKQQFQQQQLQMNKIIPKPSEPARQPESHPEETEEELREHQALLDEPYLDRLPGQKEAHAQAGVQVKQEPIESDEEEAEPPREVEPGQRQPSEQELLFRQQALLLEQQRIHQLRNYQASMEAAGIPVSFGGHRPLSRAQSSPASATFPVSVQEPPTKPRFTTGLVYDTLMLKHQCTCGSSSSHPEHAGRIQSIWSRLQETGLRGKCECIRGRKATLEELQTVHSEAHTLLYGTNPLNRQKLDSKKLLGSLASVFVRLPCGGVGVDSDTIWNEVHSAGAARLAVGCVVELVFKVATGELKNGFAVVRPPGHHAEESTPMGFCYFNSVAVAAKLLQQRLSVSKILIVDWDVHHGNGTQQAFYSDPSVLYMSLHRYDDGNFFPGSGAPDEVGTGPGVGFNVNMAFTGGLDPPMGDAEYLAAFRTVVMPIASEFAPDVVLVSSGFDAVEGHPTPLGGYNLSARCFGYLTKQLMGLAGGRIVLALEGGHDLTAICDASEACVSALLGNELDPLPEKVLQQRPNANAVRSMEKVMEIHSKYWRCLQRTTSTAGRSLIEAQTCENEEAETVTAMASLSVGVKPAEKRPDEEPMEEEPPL

In the case of `O=C(NO)C1C=CCC1c1ccccc1` (stereo unspecified) [US10106535, Example 30], the pIC50 is 4.91.
